The record followed here is patent US5707798A, “Identification of ligands by selective amplification of cells transfected with receptors” (priority 1994, dated 1998).

Test [1] addresses T1, alpha 2 C2 adrenergic receptor (Homo sapiens, UniProt P18089).
T1 sequence (P18089 1-450): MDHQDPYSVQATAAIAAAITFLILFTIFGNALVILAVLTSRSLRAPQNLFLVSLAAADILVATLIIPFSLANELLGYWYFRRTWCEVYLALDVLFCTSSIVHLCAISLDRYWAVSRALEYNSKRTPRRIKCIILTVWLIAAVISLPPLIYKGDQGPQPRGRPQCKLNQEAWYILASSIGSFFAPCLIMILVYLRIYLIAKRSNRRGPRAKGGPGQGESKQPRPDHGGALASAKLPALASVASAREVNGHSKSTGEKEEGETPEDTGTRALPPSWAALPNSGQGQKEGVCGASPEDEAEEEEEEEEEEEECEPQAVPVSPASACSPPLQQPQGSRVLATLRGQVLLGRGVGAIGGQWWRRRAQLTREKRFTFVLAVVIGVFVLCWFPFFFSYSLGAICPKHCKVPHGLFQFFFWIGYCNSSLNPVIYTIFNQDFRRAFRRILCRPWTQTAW
The class given is cell-based.

Test [2] has as its target T2, m4 muscarinic receptor (Homo sapiens, UniProt P08173).
T2 sequence (P08173 1-479): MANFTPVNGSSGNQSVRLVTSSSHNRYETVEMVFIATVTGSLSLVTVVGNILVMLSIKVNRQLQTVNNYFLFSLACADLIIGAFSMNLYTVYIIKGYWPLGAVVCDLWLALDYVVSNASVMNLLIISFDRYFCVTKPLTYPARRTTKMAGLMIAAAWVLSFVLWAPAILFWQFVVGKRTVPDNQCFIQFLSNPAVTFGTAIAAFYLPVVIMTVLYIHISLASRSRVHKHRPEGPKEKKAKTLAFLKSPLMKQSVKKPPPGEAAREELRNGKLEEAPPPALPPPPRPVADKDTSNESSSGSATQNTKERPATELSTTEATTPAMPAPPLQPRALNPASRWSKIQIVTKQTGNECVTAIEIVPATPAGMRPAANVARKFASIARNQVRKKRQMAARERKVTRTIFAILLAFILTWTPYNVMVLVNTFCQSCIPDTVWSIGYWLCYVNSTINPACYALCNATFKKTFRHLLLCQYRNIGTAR
Briefly: cell-based.

Test [3] addresses T3, m1 muscarinic receptor (Homo sapiens, UniProt P11229).
T3 sequence (P11229 1-460): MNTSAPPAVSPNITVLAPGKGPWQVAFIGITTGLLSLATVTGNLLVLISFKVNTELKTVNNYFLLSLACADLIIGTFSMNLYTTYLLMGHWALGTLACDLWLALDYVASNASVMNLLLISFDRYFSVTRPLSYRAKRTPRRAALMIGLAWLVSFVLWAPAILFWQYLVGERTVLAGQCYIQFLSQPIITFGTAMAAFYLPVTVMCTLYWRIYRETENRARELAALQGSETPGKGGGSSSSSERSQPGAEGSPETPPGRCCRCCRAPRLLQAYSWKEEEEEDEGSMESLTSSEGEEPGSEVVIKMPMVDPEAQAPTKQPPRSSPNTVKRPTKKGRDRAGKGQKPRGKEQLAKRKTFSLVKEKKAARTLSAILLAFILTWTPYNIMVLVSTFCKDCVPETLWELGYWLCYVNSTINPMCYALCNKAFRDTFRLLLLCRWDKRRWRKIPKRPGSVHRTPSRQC
Briefly: cell-based.

The target in test [4] is T4, m3 muscarinic receptor (Homo sapiens, UniProt P20309). The test is described as follows: cell-based.
Test [5] concerns the target T5, m5 muscarinic receptor (Homo sapiens, UniProt P08912).
T5 construct: expressed in transfected cells; host or cells: NIH 3T3 (mouse fibroblasts)
T5 sequence (P08912 1-532): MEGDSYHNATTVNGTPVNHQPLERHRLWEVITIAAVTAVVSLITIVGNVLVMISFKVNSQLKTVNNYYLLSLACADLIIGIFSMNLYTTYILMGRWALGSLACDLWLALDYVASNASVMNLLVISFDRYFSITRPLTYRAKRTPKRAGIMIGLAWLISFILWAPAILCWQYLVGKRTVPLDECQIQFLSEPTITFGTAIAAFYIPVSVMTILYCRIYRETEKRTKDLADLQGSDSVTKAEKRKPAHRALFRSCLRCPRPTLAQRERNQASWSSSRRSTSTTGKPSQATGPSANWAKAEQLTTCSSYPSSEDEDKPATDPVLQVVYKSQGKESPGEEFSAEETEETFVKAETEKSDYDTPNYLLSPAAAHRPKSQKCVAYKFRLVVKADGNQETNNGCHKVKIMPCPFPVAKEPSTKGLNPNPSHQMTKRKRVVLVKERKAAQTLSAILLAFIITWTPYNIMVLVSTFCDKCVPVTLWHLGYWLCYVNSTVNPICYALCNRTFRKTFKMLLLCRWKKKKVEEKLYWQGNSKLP
The class given is cell-based. Particulars: read-out: negative log Ki (converted).

Test [6] has as its target T6, alpha 2 C4 adrenergic receptor (Homo sapiens, UniProt P18825).
T6 construct: expressed in transfected cells; host or cells: NIH 3T3 (mouse fibroblasts)
T6 sequence (P18825 1-462): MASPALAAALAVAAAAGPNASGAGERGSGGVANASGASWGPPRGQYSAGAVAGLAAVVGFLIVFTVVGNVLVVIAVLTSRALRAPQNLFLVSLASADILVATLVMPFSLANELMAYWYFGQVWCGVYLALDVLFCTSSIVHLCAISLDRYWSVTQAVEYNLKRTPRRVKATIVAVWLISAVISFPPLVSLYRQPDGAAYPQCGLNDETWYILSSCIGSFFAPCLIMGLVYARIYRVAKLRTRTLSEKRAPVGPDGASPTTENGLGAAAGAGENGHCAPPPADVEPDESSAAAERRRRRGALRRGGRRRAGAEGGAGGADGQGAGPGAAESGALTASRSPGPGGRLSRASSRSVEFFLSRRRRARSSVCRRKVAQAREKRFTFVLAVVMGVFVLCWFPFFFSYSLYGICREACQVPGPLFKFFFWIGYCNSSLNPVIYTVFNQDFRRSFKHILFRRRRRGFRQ
The class given is cell-based. Particulars: α2-C4, Table 3; relative to other ligands at the receptor.

In the next test the test system is NIH 3T3 cells. Briefly: Amplification response in the absence of the indicated target receptor. The class given is cell-based, mouse. The note with it: absence of the ligand's target receptor. On the procedure:
FIG. 16 illustrates the maximal ligand-induced responses of the indicated receptors, as assayed using cotransfected cultures using a Multiple Receptor Format similar to that described in FIG. 11. […] Cells were incubated in wells of a 96 well plate for 4 days with each ligand. Maximal responses were calculated by fitting the data to a model of a single mass-action site.

In the next test the target is T7, m2 muscarinic receptor (Homo sapiens, UniProt P08172).
T7 construct: expressed in transfected cells; host or cells: NIH 3T3 (mouse fibroblasts)
T7 sequence (P08172 1-466): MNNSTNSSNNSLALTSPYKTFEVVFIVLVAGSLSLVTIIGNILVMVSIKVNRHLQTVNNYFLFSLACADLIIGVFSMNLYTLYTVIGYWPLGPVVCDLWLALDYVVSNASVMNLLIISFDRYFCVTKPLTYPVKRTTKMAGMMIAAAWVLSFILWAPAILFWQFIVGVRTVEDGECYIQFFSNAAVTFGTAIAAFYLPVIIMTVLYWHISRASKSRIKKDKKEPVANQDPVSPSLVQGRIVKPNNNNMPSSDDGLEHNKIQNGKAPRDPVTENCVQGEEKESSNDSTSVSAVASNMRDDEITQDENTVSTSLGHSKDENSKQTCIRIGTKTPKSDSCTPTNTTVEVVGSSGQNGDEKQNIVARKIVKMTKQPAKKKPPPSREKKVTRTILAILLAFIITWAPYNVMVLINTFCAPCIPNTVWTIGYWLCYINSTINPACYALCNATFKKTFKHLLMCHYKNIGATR
Briefly: cell-based. The class given is cell-based.

Test [7] concerns the target T3, m1 muscarinic receptor. Briefly: cell-based. The class given is cell-based. More on the design: expressed in transfected cells; host or cells: NIH 3T3 (mouse fibroblasts). The note with it: for Emax: read-out: % Max.
In test [8] the test system is Glutamate metabatropic receptor. The class given is cell-based.
Test [9] addresses T2, m4 muscarinic receptor. The test is described as follows: cell-based. Particulars: read-out: % Max.
In test [10] the target is T2, m4 muscarinic receptor.
Test [11] has as its target T5, m5 muscarinic receptor. The class given is cell-based. The note with it: for Emax: read-out: % Max.
Test [12] deals with T4, m3 muscarinic receptor. The test is described as follows: cell-based. More on the design: expressed in transfected cells; host or cells: NIH 3T3 (mouse fibroblasts). The note with it: for Emax: read-out: % Max.
For a further test, the target named is Insulin receptor. The class given is cell-based.

Like-named read-outs stand apart in the source and are kept apart here. Ends that are not written are not given here.

T4 sequence (P20309 whole entry): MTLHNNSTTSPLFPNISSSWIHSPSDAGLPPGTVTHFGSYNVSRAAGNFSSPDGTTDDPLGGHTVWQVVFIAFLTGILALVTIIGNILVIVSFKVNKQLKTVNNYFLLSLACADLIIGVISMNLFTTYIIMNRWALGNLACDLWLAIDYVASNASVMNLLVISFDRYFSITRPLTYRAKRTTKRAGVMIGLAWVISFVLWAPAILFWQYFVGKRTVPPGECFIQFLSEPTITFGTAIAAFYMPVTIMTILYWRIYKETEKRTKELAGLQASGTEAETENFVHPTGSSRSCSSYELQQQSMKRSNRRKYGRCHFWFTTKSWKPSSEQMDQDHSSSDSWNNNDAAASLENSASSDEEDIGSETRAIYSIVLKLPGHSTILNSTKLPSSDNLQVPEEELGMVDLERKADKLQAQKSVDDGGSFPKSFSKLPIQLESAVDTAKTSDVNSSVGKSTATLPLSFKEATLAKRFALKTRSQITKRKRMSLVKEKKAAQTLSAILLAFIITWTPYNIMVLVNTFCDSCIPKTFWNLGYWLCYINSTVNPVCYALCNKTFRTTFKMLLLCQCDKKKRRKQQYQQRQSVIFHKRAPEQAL

Broadly, the EC50 is the concentration needed to bring the measured effect to its halfway point. Molecule `Cc1cccc([C@H](C)c2cnc[nH]2)c1C` [Dexmedetomidine] registered an EC50 in test [1] of 2 nM.
By Ki is commonly meant the equilibrium dissociation constant of an inhibitor or competing ligand from its target. As to `COc1ccccc1CNCCCCCCNCCCCCCCCNCCCCCCNCc1ccccc1OC` [methocrtramine], the Ki is 398 nM at m4 muscarinic receptor [2], 501 nM on m1 muscarinic receptor [3], > 1000 nM on m3 muscarinic receptor [4] and > 1000 nM at m5 muscarinic receptor [5].
Turning to `CNC[C@H](O)c1ccc(O)c(O)c1` [Epinephrine], the “Max Response” value in test [6] was “+”.
Take `O=C(O)CCC/C=C\C[C@@H]1[C@@H](/C=C/[C@@H](O)COc2cccc(C(F)(F)F)c2)[C@H](O)C[C@@H]1O` (racemic) [Fluprostenol]: in the test on NIH 3T3 cells, the induction of responses result was “unable to induce responses”.
Turning to `C[N+](C)(C)CC#CCOC(=O)Nc1cccc(Cl)c1` [McN A-434], the EC50 on m2 muscarinic receptor (m2 + Gq-i5, Table 1A, read-out: EC50) was 1500 ± 600 nM; on m1 muscarinic receptor [7] (m1, Table 1A, read-out: EC50), 1100 ± 200 nM. In addition, the “% Max” value amounted to 108 ± 7% on m2 muscarinic receptor (nih 3t3 cells) and 43 ± 2% on m1 muscarinic receptor [7] (nih 3t3 cells).
With `N[C@@H](Cn1oc(=O)[nH]c1=O)C(=O)O` [Quisqualate], in test [8] (Table 2, read-out: Ligand EC50), the EC50 turned out to be 2400 nM. In test [8] (relative to other clones), the Rmax entry is reported as “+”.
Turning to `O=C1CCCN1CC#CCN1CCCC1` [oxotremorine], the Emax on m4 muscarinic receptor [9] was found to be 102 ± 3%; at m2 muscarinic receptor (read-out: % Max) it was 100 ± 5%; at m5 muscarinic receptor [11] it was 74 ± 2%; at m1 muscarinic receptor [7], 75 ± 10%; at m3 muscarinic receptor [12], 66 ± 5%. Also, the EC50 came out at 33 ± 14 nM at m4 muscarinic receptor [10]; 33 ± 14 nM on m4 muscarinic receptor [10] (read-out: Ligand EC50); 19 ± 10 nM at m2 muscarinic receptor (read-out: EC50); 19 ± 10 nM at m2 muscarinic receptor (read-out: Ligand EC50); 55 ± 1 nM at m5 muscarinic receptor [11] (m5, Table 1A, read-out: EC50); 55 ± 1 nM at m5 muscarinic receptor [11] (m5, Table 2, read-out: Ligand EC50). Besides, the EC50 on m1 muscarinic receptor [7] (read-out: EC50) was 390 ± 130 nM; on m1 muscarinic receptor [7] (read-out: Ligand EC50) it was 390 ± 130 nM; at m3 muscarinic receptor [12] (read-out: EC50), 210 ± 60 nM; at m3 muscarinic receptor [12] (read-out: Ligand EC50) it was 210 ± 60 nM.
As to Insulin, the EC50 at Insulin receptor (Table 2, read-out: Ligand EC50) was 0.08 ± 0.08 nM. The Rmax entry with Insulin receptor (relative to other clones) is given as “+”.
“substance P (RPKPQQFFGLM; ends and bridges not checked; UniProt P20366 58-68, looked up)”: the induction of responses result with NIH 3T3 cells is recorded as “unable to induce responses”.
Regarding `Cc1cc(C(C)(C)C)c(O)c(C)c1CC1=NCCN1` [Oxymetazoline], in test [6], the “Max Response” value was “+”.
Turning to `CNC[C@H](O)c1cccc(O)c1` [phenylephrine], in the test on NIH 3T3 cells, the induction of responses entry is reported as “unable to induce responses”.
`C[N+]1(C)CCC(OC(=O)C(c2ccccc2)c2ccccc2)CC1` [4-DAMP]: the Ki at m1 muscarinic receptor [3] was 2.51 nM; at m5 muscarinic receptor [5], 1 nM.
For the molecule `Brc1c(NC2=NCCN2)ccc2nccnc12` [UK 14,304], the “Max Response” value in [6] is given as “+”.
Turning to `Nc1cc(Cl)c(NC2=NCCN2)c(Cl)c1` [p-NH2-Clonidine], in test [1] (α2-C2, Table 3, relative to other ligands at the receptor), the “Max Response” value is recorded as “+”.
Regarding `C[C@@H]1O[C@H](C[N+](C)(C)C)C[C@H]1O` [muscarine], the Emax was 69 ± 2% on m4 muscarinic receptor [9], 86% at m5 muscarinic receptor [11], 84 ± 4% at m1 muscarinic receptor [7] and 84 ± 6% on m3 muscarinic receptor [12].
With `C1COC(NC(C2CC2)C2CC2)=N1` [Rilmenidine], the “Max Response” value in [6] was “+”.
In the case of endothelin-3 [ET-3], in the test with NIH 3T3 cells, the induction of responses entry is given as “unable to induce responses”.
Consider `COc1nc(C)nc(Cl)c1N=C1NCCN1` [Moxonidine], for which the “Max Response” value in [6] was “+”.
For the molecule `Clc1cc(I)cc(Cl)c1NC1=NCCN1` [p-I-Clonidine], the “Max Response” value in test [1] was “+”.
